This is an account of results in BindingDB's records for doi:10.1021/jm050532w (Glaxosmithkline, 2005).

pEC50: −log10 of the molar value.

What is called pEC50 is −log10 of the EC50, conventionally taken in molar units. Read a low pEC50 as a large EC50.

The target of experiment [1] is T1, Oxysterols receptor LXR-alpha (Homo sapiens, UniProt Q13133).
T1 sequence (Q13133 whole entry): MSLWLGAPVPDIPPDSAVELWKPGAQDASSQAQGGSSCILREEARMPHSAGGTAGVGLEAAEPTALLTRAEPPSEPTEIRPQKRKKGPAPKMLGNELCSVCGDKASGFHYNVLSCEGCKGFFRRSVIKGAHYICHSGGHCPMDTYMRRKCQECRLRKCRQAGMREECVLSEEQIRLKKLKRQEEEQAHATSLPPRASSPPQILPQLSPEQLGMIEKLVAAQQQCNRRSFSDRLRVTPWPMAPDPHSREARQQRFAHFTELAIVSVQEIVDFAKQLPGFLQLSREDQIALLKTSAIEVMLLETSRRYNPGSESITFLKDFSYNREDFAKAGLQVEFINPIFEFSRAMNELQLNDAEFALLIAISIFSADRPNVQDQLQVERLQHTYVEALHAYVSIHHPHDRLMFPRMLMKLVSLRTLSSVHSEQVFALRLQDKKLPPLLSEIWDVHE
Nature of the experiment: Cell-Free Ligand Sensing Assay (LiSA)-LXRalpha-SRC1 Assay. The note with it: pH 7.5; 22 °C. As for the experimental part:
(§1) The LXR LiSA measures the ligand-dependent recruitment of a 25 amino acid fragment of the steroid receptor coactivator 1 (SRC1) to the ligand-binding domain of the receptor. The biotinylated protein was incubated with streptavidin-AlloPhycoCyanin, biotinylated SRC-1 peptide, and streptavidin-labeled europium. The fluorescence resonance energy transfer was then counted on a Wallac Victor fluorescent plate reader in a time-resolved mode.

In experiment [2] the target is T2, Oxysterols receptor LXR-beta (Homo sapiens, UniProt P55055).
T2 sequence (P55055 whole entry): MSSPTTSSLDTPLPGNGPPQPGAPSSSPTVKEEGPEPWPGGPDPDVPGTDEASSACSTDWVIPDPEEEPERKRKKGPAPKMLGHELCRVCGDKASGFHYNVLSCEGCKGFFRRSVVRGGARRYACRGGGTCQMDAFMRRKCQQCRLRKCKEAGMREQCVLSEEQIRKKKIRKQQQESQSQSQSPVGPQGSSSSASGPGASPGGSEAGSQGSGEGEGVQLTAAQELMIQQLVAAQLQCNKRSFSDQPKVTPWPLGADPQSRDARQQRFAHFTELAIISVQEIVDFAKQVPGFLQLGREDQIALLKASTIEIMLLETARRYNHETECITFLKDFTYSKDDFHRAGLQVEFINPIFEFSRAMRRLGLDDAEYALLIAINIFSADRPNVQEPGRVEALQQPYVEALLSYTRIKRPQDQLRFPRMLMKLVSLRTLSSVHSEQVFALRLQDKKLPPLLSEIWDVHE
Nature of the experiment: Cell-Free Ligand Sensing Assay (LiSA)-LXRbeta-SRC1 Assay. The note with it: pH 7.5; 22 °C. As for the experimental part:
as §1

As for `COc1ccc(N=C2C(=O)N(c3ccccc3)C(=O)C2c2ccccc2)cc1` (configuration not stated) [3-[(4-methoxyphenyl)amino]-1,4-diphenyl-2,5-dihydro-1H-pyrrole-2,5-dione], the results for the pEC50 in experiment [1] and in experiment [2] were 6.56 and 6.59, respectively.
